Data on two molecules can be found in patent publication US20240189254A1, “Xylitol Topical Ocular Solution” (GSX Pharma LLC, priority 2022, published 2024).

Read-outs that look alike come from different tables or passages of the source.

One data set deals with Acanthamoeba cysts. The following applies: 48 h of exposure; cited from earlier work.
The subject of data set [1] is Acanthamoeba trophozoites. The following applies: 48 h of exposure; cited from earlier work.
In data set [2] the test system is H. influenzae. The conditions noted are these: 5% xylitol; cited from earlier work.
The conditions of data set [3]: 8.4-10 g daily in five doses, 2-3 months follow-up, cited from earlier work.
Data set [4] relates to S. pneumoniae. The conditions noted are these: cited from earlier work.
The test system of data set [5] is Acanthamoeba species cysts. Put plainly: PMN testing of Acanthamoeba species, xylitol with PHMB. Format: cell-based. The following applies: xylitol 6% to 20%. The text has this:
In PMN testing of a number of Acanthamoeba species, Xylitol in concentrations ranging from 6% to 20% has appeared to potentiate the acanthamoeba cysticidal effects of PHMB. In order for a disinfectant like PHMB to be cysticidal, it must gain access to the trophozoite internalized within the cyst. The most obvious route is via the ostioles or the pores in the double cell wall of the cyst that connect the outer exocyst and inner endocyst, thus allowing the internalized amoeba to communicate with its outside environment. It is believed that the mucopolysaccharides of the ostioles are altered by xylitol that enhance the binding by PHMB to allow […] penetration of the disinfectant.

For data set [6] the following is noted: in vivo; cited from earlier work.
Data set [7] has as its system S. mutans. The conditions noted are these: in spite of the presence of glucose or sucrose; cited from earlier work.
Another data set has as its system Streptococcus sanguis. The conditions noted are these: cited from earlier work.
In data set [8] the test system is S. mutans. The following applies: cited from earlier work.
The test system of data set [9] is beta-haemolytic streptococci. The following applies: 5% xylitol; cited from earlier work.
The test system of the next data set is SARS-CoV-2. The following applies: in vitro, within minutes of application, lasting for hours; cited from earlier work.
Data set [10] in a line: limited human studies of topical xylitol. The format is in vivo. The conditions noted are these: topical 4% to 7% xylitol, 2-5 times per day.
For data set [11], the system named is S. pneumoniae. The conditions noted are these: glucose in the growth medium, cited from earlier work.
Data set [12] concerns H. influenzae. The conditions noted are these: cited from earlier work.
A further data set deals with M. catarrhalis. The following applies: 5% xylitol; cited from earlier work.
The test system of another data set is Streptococcus salivarius. The following applies: cited from earlier work.
The test system of data set [13] is Streptococcus pneumoniae strains. The following applies: xylitol 0.5 to 5%; cited from earlier work.

Take Polyhexamethylene Biguanide [PHMB]: the “minimum cysticidal concentration (MCC)” value in the data set on Acanthamoeba cysts was 3 g/mL. The “minimum trophozoite amoebicidal concentration (MTAC)” value in [1] was 1 g/mL.
In the case of `OC[C@@H](O)[C@H](O)[C@@H](O)CO` [Xylitol], in the data set with H. influenzae [2], the “growth of H. influenza” value is given as “minimally affected”. The “reduction of acute otitis media” value in [3] (chewing gum) is “approximately 40%”; in data set [3] (oral xylitol syrup), “approximately 30%”. In the data set on S. pneumoniae [4], the “concentration sufficient to reduce adherence of S. pneumoniae to epithelial cells” value is 5%. Moreover, the “effect on acanthamoeba cysticidal effects of PHMB” value in data set [5] was “potentiate”. In [6], the “time until xylitol disappeared from the saliva” value is at most 15 min. In addition, the “growth of S. mutans” value in the data set with S. mutans [7] was “markedly reduced”. Also, in the data set with Streptococcus sanguis, the “effect on growth of Streptococcus sanguis” value is given as “modest by comparison, but still significant”. Moreover, the “concentration capable of reducing adherence of S. mutans” value in the data set on S. mutans [8] is listed as 6%. For the same molecule, the “growth of beta-haemolytic streptococci” value in [9] is recorded as “more modestly impaired”. Moreover, the “reduction of virion concentrations” value in the data set with SARS-CoV-2 is “multiple log MAR reduction”. Moreover, in data set [10], the “corneal SPK” value was “reduce”. Further, in data set [10], the “symptoms and inflammation (imaging of retro-palpebral and ocular surface mucosa, Meibomian gland obstruction)” value is listed as “improve”. The “inhibition of pneumococcal growth” value with S. pneumoniae [11] (1% xylitol) is recorded as 39%; in the data set with S. pneumoniae [11] (5% xylitol solution), 72%. Moreover, the “concentration sufficient to reduce adherence of H. influenzae to epithelial cells” value with H. influenzae [12] is 5%. Further, the “growth of M. catarrhalis” value in the data set on M. catarrhalis is “minimally affected”. For the same molecule, the “effect on growth of Streptococcus salivarius” value in the data set on Streptococcus salivarius is given as “modest by comparison, but still significant”. For the same molecule, the “adherence on epithelial cells” value in data set [13] is on record as “did not diminish significantly”.
